In patent publication US20130253022A1 (FOX CHASE CHEMICAL DIVERSITY CENTER, INC., priority 2010, published 2013):

Key:
Hippocampal Cultures [1] = experiment: Neuroprotection from heavy metal toxicity, CFDA assay; format: cell-based, rat; conditions: for EC50: Rattus norvegicus
Description: All compounds were screened with dissociated hippocampal cultures derived from embryonic day 18 rats as the primary test system. With this preparation, primary neurons were used to test for prevention of heavy metal toxicity by the disclosed compounds. In brief, hippocampal tissue was obtained commercially through Brain Bits (Springfield, Ill.) and cultures prepared as previously described (Brewer, G. J. Serum-free B27/neurobasal medium supports differentiated growth of neurons from the striatum, substantia nigra, septum, cerebral cortex, cerebellum and dentate gyms, J. Neurosci. Res., 1995, 42, 674-683). The hippocampal neurons were platted at low density (10,000 cell/well) in a 96-well format and maintained in serum-free medium consisting of Neurobasal Medium supplemented with B27 and GlutaMAX (Gibco). Pre-coated poly-L-lysine coated plates are used because of the preferential adherence and survival of hippocampal neurons on this matrix support. Heavy metal toxicity is associated with the occurrence of seizures ([…] et al. Zinc and copper: pharmacological probes and endogenous modulators of neuronal excitability. Pharmacol. Ther. 2006, 111, 567-583). Therefore, the heavy metal toxicity studies serve as another example of the oxidative stress that the disclosed compounds have a protection action against. To establish the dose-dependency of test agents, day 18 hippocampal cultures were utilized to study the toxicity produced after treatment with the heavy metals and neuroprotection after treatment with test compounds. Serving as examples of heavy metal salts for these studies are the following: […] Prior to treatment, the B27/Neural Basal media of the cultures were replaced with B27 neural basal medium without antioxidants for 18 hours. […] Further, the removal of antioxidants in the medium was performed to obtain a significant and reproducible toxic signal for heavy metal treatment of the hippocampal neurons. Toxicity produced by heavy metals is measured by decreases in neuronal viability. Carboxyfluorescein (CFDA) was used a vital stain for all cell toxicity and neuroprotection studies. With the use of the CytoFluor fluorimeter, the CFDA assay was employed to assess the viability of neurons. CFDA is a dye that becomes fluorescent upon cell entry and cleavage by cytosolic esterases (Petroski and Geller. Selective labeling of embryonic neurons cultures on astrocyte monolayers with 5(6)-carboxyfluorescein diacetate [CFDA]. J. Neurosci. Methods 1994, 52, 23-32). Neuronal specificity is obtained relative to astrocytes because the cleaved dye is extruded extracellularlly by glia with time, while dye in neurons remains intracellular. Dose responses to the various heavy metal salts determined the minimal concentration that produced the maximum amount of toxicity. […] All test compounds are dissolved to 10 mM in Dulbecco's phosphate buffered saline (DPBS; Sigma: D-5780) prior to testing. To test for neuroprotection from a heavy metal toxicity, day 11 hippocampal cultures are given a complete change of medium containing 100 μl of Neurobasal medium with B27 that contain no antioxidants. Twenty-four hours after the change in medium, the heavy metal neuroprotection studies are started. […] At the conclusion of the 4 hour incubation period, the dye is removed from the cultures and washed once with 100 μl of DPBS. After removal of the first wash, a second wash of DPBS is added to the culture and then incubated for 30 min to allow the efflux of dye out of glia in the cultures. At the conclusion of the 30 min efflux period, the culture efflux medium is removed and 100 μl of 0.1% triton-X100 in water is added to the cultures before reading at Ex490/Em517 in a CytoFluor fluorimeter. Results are expressed in relative fluorescent units (RFU) and EC50's calculated from the dose response of the test compound.

Hippocampal Cultures [2] = experiment: Neuroprotection from heavy metal toxicity, propidium iodide assay; format: cell-based; conditions: Rattus norvegicus, read-out: Neuroprotection EC50 PI
Description: All compounds were screened with dissociated hippocampal cultures derived from embryonic day 18 rats as the primary test system. With this preparation, primary neurons were used to test for prevention of heavy metal toxicity by the disclosed compounds. In brief, hippocampal tissue was obtained commercially through Brain Bits (Springfield, Ill.) and cultures prepared as previously described (Brewer, G. J. Serum-free B27/neurobasal medium supports differentiated growth of neurons from the striatum, substantia nigra, septum, cerebral cortex, cerebellum and dentate gyms, J. Neurosci. Res., 1995, 42, 674-683). The hippocampal neurons were platted at low density (10,000 cell/well) in a 96-well format and maintained in serum-free medium consisting of Neurobasal Medium supplemented with B27 and GlutaMAX (Gibco). Pre-coated poly-L-lysine coated plates are used because of the preferential adherence and survival of hippocampal neurons on this matrix support. Heavy metal toxicity is associated with the occurrence of seizures ([…] et al. Zinc and copper: pharmacological probes and endogenous modulators of neuronal excitability. Pharmacol. Ther. 2006, 111, 567-583). Therefore, the heavy metal toxicity studies serve as another example of the oxidative stress that the disclosed compounds have a protection action against. To establish the dose-dependency of test agents, day 18 hippocampal cultures were utilized to study the toxicity produced after treatment with the heavy metals and neuroprotection after treatment with test compounds. Serving as examples of heavy metal salts for these studies are the following: […] Prior to treatment, the B27/Neural Basal media of the cultures were replaced with B27 neural basal medium without antioxidants for 18 hours. […] Further, the removal of antioxidants in the medium was performed to obtain a significant and reproducible toxic signal for heavy metal treatment of the hippocampal neurons. At the conclusion of the 4 hour test period, the cultures are also tested for the amount of cell death as measured by the propidium iodide method. […] After removal of the growth medium, 50 μl of the 50 μM PI solution is added to cultures and allowed to incubate in the dark at room temperature for 15 min. The cultures are then assessed for fluorescence intensity at Ex536/Em590 nm in a CytoFluor fluorimeter. Results are expressed in relative fluorescent units. […] The test compound is added to the hippocampal cultures at concentrations that range from […] to […]. The incubation period is for four hours followed by the measurement of fluorescence at Ex536/Em590 nm in a CytoFluor fluorimeter. Results are expressed in relative fluorescent units. Background fluorescence was subtracted from values obtained from wells without cells.

[3] = Cobalt Chloride hexahydrate 10 μM
[4] = Copper Acetate monohydrate 10 μM
[5] = Nickel Chloride hexahydrate 10 μM

With NS(=O)(=O)NCC(F)(F)c1ccccc1F [Example 1, 2,2-Difluoro-2-(2-fluorophenyl)-ethyl-1-sulfamide] the EC50 (Hippocampal Cultures [1]; [3]) was 100 nM, the EC50 (Hippocampal Cultures [1]; [4]) was 0.1 nM and the EC50 (Hippocampal Cultures [1]; Iron sulfate hexahydrate 10 μM) was 1 nM. The EC50 (Hippocampal Cultures [1]; [5]) was 10 nM, the EC50 (Hippocampal Cultures [1]; Zinc Acetate dehydrate 1 μM) was 0.1 nM and the “Prevention of toxicity of 5 heavy metals” value (Hippocampal Cultures [1]; five heavy metal salts at the Table 3 concentrations, CFDA and PI assays) was “prevented the toxicity of 5 heavy metals”. The EC50 (Hippocampal Cultures [2]; [3]) was 0.1 nM, the EC50 (Hippocampal Cultures [2]; [4]) was 0.1 nM and the EC50 (Hippocampal Cultures [2]; Iron sulfate hexahydrate 10 μM) was 0.01 nM. For the same compound, the EC50 (Hippocampal Cultures [2]; [5]) was 0.1 nM and the EC50 (Hippocampal Cultures [2]; Zinc Acetate dehydrate 1 μM) was 0.01 nM.
